Target: EGFR WT (Homo sapiens (Human), UniProt P00533)
Experiment: ErbB enzyme assay (CisBio HTRF-KinEASE-TK), EGFR WT
Format: biochemical
Conditions: ATP at Km (25 μM), 1 h incubation
Summary of the method: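 Tyrosine kinase HTRF, 1 h RT reaction → quench (Sa-XL665/TK-Ab-Cryptate) → 1 h RT → 655/620 ratio.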

Chain of EGFR WT (P00533 25-1210): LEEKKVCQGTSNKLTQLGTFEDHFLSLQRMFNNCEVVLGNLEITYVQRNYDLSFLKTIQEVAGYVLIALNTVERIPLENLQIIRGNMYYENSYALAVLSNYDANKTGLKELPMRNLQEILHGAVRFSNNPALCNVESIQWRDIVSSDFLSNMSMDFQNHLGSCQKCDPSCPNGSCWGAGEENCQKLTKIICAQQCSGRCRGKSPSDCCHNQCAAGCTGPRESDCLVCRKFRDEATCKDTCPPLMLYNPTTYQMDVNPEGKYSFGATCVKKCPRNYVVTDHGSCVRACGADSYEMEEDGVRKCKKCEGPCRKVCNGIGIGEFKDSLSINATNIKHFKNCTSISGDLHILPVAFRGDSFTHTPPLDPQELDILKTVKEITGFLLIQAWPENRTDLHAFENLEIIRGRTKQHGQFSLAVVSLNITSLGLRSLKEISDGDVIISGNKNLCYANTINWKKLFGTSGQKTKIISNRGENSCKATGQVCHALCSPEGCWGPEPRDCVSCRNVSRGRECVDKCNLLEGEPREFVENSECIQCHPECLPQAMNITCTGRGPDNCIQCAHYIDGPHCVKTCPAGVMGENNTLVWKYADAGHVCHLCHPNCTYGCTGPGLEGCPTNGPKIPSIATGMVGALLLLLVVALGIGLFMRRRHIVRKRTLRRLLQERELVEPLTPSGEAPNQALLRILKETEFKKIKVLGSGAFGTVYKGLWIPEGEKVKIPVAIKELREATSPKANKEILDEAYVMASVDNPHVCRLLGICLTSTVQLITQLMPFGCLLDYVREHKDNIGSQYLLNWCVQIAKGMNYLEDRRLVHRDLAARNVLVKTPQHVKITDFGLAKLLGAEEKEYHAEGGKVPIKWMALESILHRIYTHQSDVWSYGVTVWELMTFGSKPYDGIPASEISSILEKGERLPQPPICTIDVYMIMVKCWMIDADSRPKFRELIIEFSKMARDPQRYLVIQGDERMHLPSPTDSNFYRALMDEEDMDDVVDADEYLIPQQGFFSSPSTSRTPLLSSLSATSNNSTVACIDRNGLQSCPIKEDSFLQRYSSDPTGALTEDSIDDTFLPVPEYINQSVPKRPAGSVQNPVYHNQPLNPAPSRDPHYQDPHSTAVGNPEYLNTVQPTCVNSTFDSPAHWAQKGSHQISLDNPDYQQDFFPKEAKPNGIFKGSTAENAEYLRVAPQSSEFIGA

| IC50 [nM] | SMILES |
| --- | --- |
| < 50 | C=CC(=O)N1CCN(c2ccc3ncnc(Nc4ccc(Oc5cnc6c(c5)ncn6C(F)F)c(C)c4)c3n2)C[C@H]1C [Compound 249, (R)-1-(4-(4-((4-((3-(difluoromethyl)-3H-imidazo[4,5-b]pyridin-6-yl)oxy)-3-methylphenyl)amino)pyrido[3,2-d]pyrimidin-6-yl)-2-methylpiperazin-1-yl)prop-2-en-1-one] |
| 50 to 100 | C=CC(=O)N1CCN(c2ccc3ncnc(Nc4cc(F)c(Oc5ccc6c(c5)nnn6C)c(Cl)c4)c3n2)C[C@H]1C [Compound 252, (R)-1-(4-(4-((3-chloro-5-fluoro-4-((1-methyl-1H-benzo[d][1,2,3]triazol-5-yl)oxy)phenyl)amino)pyrido[3,2-d]pyrimidin-6-yl)-2-methylpiperazin-1-yl)prop-2-en-1-one] |
| 50 to 100 | C=CC(=O)N1CCN(c2ccc3ncnc(Nc4ccc(Oc5cc(F)c6c(c5)nnn6C)c(C)c4)c3n2)C[C@H]1C [Compound 254, (R)-1-(4-(4-((4-((7-fluoro-1-methyl-1H-benzo[d][1,2,3]triazol-5-yl)oxy)-3-methylphenyl)amino)pyrido[3,2-d]pyrimidin-6-yl)-2-methylpiperazin-1-yl)prop-2-en-1-one] |
| 50 to 100 | C=CC(=O)N1CCN(c2ccc3ncnc(Nc4cc(C)c(Oc5ccc6c(c5)nnn6C)c(F)c4)c3n2)C[C@H]1C [Compound 255, (R)-1-(4-(4-((3-fluoro-5-methyl-4-((1-methyl-1H-benzo[d][1,2,3]triazol-5-yl)oxy)phenyl)amino)pyrido[3,2-d]pyrimidin-6-yl)-2-methylpiperazin-1-yl)prop-2-en-1-one] |
| < 50 | C=CC(=O)N1CCN(c2ccc3ncnc(Nc4c(OC)cc(Oc5cc(F)c6c(c5)ncn6C)c(C)c4F)c3n2)C[C@H]1C [Compound 257, (R)-1-(4-(4-((2-fluoro-4-((7-fluoro-1-methyl-1H-benzo[d]imidazol-5-yl)oxy)-6-methoxy-3-methylphenyl)amino)pyrido[3,2-d]pyrimidin-6-yl)-2-methylpiperazin-1-yl)prop-2-en-1-one] |
| 100 to 500 | C=CC(=O)N1CCN(c2ccc3ncnc(Nc4ccc(Oc5cc6nnn(C)c6cc5F)c(C)c4)c3n2)C[C@H]1C [Compound 262, (R)-1-(4-(4-((4-((6-fluoro-1-methyl-1H-benzo[d][1,2,3]triazol-5-yl)oxy)-3-methylphenyl)amino)pyrido[3,2-d]pyrimidin-6-yl)-2-methylpiperazin-1-yl)prop-2-en-1-one] |
| 100 to 500 | C=CC(=O)N[C@]1(C)CCN(c2ccc3ncnc(Nc4ccc(Oc5ccc6c(c5)nnn6C)c(C)c4)c3n2)C1 [Compound 263, (R)-N-(3-methyl-1-(4-((3-methyl-4-((1-methyl-1H-benzo[d][1,2,3]triazol-5-yl)oxy)phenyl)amino)pyrido[3,2-d]pyrimidin-6-yl)pyrrolidin-3-yl)acrylamide] |
| ≥ 1000 | C=CC(=O)N1C[C@@H](N(C)c2ccc3ncnc(Nc4ccc(Oc5ccc6c(c5)nnn6C)c(C)c4F)c3n2)CC[C@@H]1C [Compound 267, 1-((2S,5S)-5-((4-((2-fluoro-3-methyl-4-((1-methyl-1H-benzo[d][1,2,3]triazol-5-yl)oxy)phenyl)amino)pyrido[3,2-d]pyrimidin-6-yl)(methyl)amino)-2-methylpiperidin-1-yl)prop-2-en-1-one] |
| ≥ 1000 | C=CC(=O)N[C@@H]1CCCN(c2ccc3ncnc(Nc4cc(C)c(Oc5ccc6c(c5)nnn6C)cc4OC(F)F)c3n2)C1 [Compound 269, (R)-N-(1-(4-((2-(difluoromethoxy)-5-methyl-4-((1-methyl-1H-benzo[d][1,2,3]triazol-5-yl)oxy)phenyl)amino)pyrido[3,2-d]pyrimidin-6-yl)piperidin-3-yl)acrylamide] |
| 100 to 500 | C=CC(=O)N[C@H]1CN(c2ccc3ncnc(Nc4ccc(Oc5ccc6c(c5)nnn6C)c(C)c4)c3n2)C[C@@H]1F [Compound 276, N-((3S,4S)-4-fluoro-1-(4-((3-methyl-4-((1-methyl-1H-benzo[d][1,2,3]triazol-5-yl)oxy)phenyl)amino)pyrido[3,2-d]pyrimidin-6-yl)pyrrolidin-3-yl)acrylamide] |
| 100 to 500 | C=CC(=O)N[C@H]1CN(c2ccc3ncnc(Nc4ccc(Oc5ccc6c(c5)nnn6C)c(C)c4)c3n2)C[C@H]1F [Compound 277, N-((3S,4R)-4-fluoro-1-(4-((3-methyl-4-((1-methyl-1H-benzo[d][1,2,3]triazol-5-yl)oxy)phenyl)amino)pyrido[3,2-d]pyrimidin-6-yl)pyrrolidin-3-yl)acrylamide] |
| 500 to 1000 | C=CC(=O)N[C@@H]1CCN(c2ccc3ncnc(Nc4ccc(Oc5ccc6c(c5)nnn6C)c(C)c4F)c3n2)C[C@@H]1F [Compound 279, N-((3S,4R)-3-fluoro-1-(4-((2-fluoro-3-methyl-4-((1-methyl-1H-benzo[d][1,2,3]triazol-5-yl)oxy)phenyl)amino)pyrido[3,2-d]pyrimidin-6-yl)piperidin-4-yl)acrylamide] |
| 100 to 500 | C=CC(=O)N[C@H]1CCN(c2ccc3ncnc(Nc4ccc(Oc5ccc6c(c5)nnn6C)c(C)c4F)c3n2)C[C@@H]1F [Compound 280, N-((3S,4S)-3-fluoro-1-(4-((2-fluoro-3-methyl-4-((1-methyl-1H-benzo[d][1,2,3]triazol-5-yl)oxy)phenyl)amino)pyrido[3,2-d]pyrimidin-6-yl)piperidin-4-yl)acrylamide] |
| < 50 | C=CC(=O)N[C@H]1CCN(c2ccc3ncnc(Nc4ccc(Oc5ccc6c(c5)nnn6C)c(C)c4F)c3n2)C[C@H]1F [Compound 281, N-((3R,4S)-3-fluoro-1-(4-((2-fluoro-3-methyl-4-((1-methyl-1H-benzo[d][1,2,3]triazol-5-yl)oxy)phenyl)amino)pyrido[3,2-d]pyrimidin-6-yl)piperidin-4-yl)acrylamide] |
| 500 to 1000 | C=CC(=O)N[C@H]1CCCN(c2ccc3ncnc(Nc4ccc(Oc5ccc6c(c5)nnn6C)c(C)c4F)c3n2)CC1 [Compound 282, (S)-N-(1-(4-((2-fluoro-3-methyl-4-((1-methyl-1H-benzo[d][1,2,3]triazol-5-yl)oxy)phenyl)amino)pyrido[3,2-d]pyrimidin-6-yl)azepan-4-yl)acrylamide] |
| ≥ 1000 | C=CC(=O)N[C@@H]1CCCN(c2ccc3ncnc(Nc4ccc(Oc5ccc6c(c5)nnn6C)c(C)c4F)c3n2)CC1 [Compound 283, (R)-N-(1-(4-((2-fluoro-3-methyl-4-((1-methyl-1H-benzo[d][1,2,3]triazol-5-yl)oxy)phenyl)amino)pyrido[3,2-d]pyrimidin-6-yl)azepan-4-yl)acrylamide] |
| 100 to 500 | C=CC(=O)N[C@@H]1CCN(c2ccc3ncnc(Nc4ccc(Oc5ccc6c(c5)nnn6C)c(C)c4F)c3n2)C[C@H]1F [Compound 287, N-((3R,4R)-3-fluoro-1-(4-((2-fluoro-3-methyl-4-((1-methyl-1H-benzo[d][1,2,3]triazol-5-yl)oxy)phenyl)amino)pyrido[3,2-d]pyrimidin-6-yl)piperidin-4-yl)acrylamide] |
| 100 to 500 | C=CC(=O)N1CCN(c2ccc3ncnc(Nc4ccc(Oc5cc6nnn(C)c6c(C)c5F)c(C)c4)c3n2)C[C@H]1C [Compound 288, (R)-1-(4-(4-((4-((6-fluoro-1,7-dimethyl-1H-benzo[d][1,2,3]triazol-5-yl)oxy)-3-methylphenyl)amino)pyrido[3,2-d]pyrimidin-6-yl)-2-methylpiperazin-1-yl)prop-2-en-1-one] |
| 100 to 500 | C=CC(=O)N1CCN(c2ccc3ncnc(Nc4ccc(Oc5cc(F)c6c(c5)nnn6C)c(C)c4F)c3n2)C[C@@H]1C1CC1 [Compound 292, (S)-1-(2-cyclopropyl-4-(4-((2-fluoro-4-((7-fluoro-1-methyl-1H-benzo[d][1,2,3]triazol-5-yl)oxy)-3-methylphenyl)amino)pyrido[3,2-d]pyrimidin-6-yl)piperazin-1-yl)prop-2-en-1-one] |
| 100 to 500 | C=CC(=O)N1CCN(c2ccc3ncnc(Nc4ccc(Oc5cc6nnn(C)c6c(F)c5C)c(C)c4F)c3n2)C[C@H]1C [Compound 293, (R)-1-(4-(4-((2-fluoro-4-((7-fluoro-1,6-dimethyl-1H-benzo[d][1,2,3]triazol-5-yl)oxy)-3-methylphenyl)amino)pyrido[3,2-d]pyrimidin-6-yl)-2-methylpiperazin-1-yl)prop-2-en-1-one] |
| 100 to 500 | C=CC(=O)N[C@H]1CN(c2ccc3ncnc(Nc4ccc(Oc5ccc6c(c5)nnn6C)c(C)c4F)c3n2)C[C@@H]1F [Compound 300, N-((3S,4S)-4-fluoro-1-(4-((2-fluoro-3-methyl-4-((1-methyl-1H-benzo[d][1,2,3]triazol-5-yl)oxy)phenyl)amino)pyrido[3,2-d]pyrimidin-6-yl)pyrrolidin-3-yl)acrylamide] |
| 500 to 1000 | C=CC(=O)N[C@H]1CN(c2ccc3ncnc(Nc4ccc(Oc5ccc6c(c5)nnn6C)c(C)c4F)c3n2)C[C@H]1F [Compound 301, N-((3S,4R)-4-fluoro-1-(4-((2-fluoro-3-methyl-4-((1-methyl-1H-benzo[d][1,2,3]triazol-5-yl)oxy)phenyl)amino)pyrido[3,2-d]pyrimidin-6-yl)pyrrolidin-3-yl)acrylamide] |
| 100 to 500 | C=CC(=O)N1CCN(c2ccc3ncnc(Nc4cc(C)c(Oc5ccc6c(c5)nnn6C)cc4OC(F)F)c3n2)C[C@H]1C [Compound 302, (R)-1-(4-(4-((2-(difluoromethoxy)-5-methyl-4-((1-methyl-1H-benzo[d][1,2,3]triazol-5-yl)oxy)phenyl)amino)pyrido[3,2-d]pyrimidin-6-yl)-2-methylpiperazin-1-yl)prop-2-en-1-one] |
| < 50 | C=CC(=O)N[C@]1(C)CCCN(c2ccc3ncnc(Nc4ccc(Oc5ccc6c(c5)nnn6C)c(C)c4F)c3n2)C1 [Compound 303, (R)-N-(1-(4-((2-fluoro-3-methyl-4-((1-methyl-1H-benzo[d][1,2,3]triazol-5-yl)oxy)phenyl)amino)pyrido[3,2-d]pyrimidin-6-yl)-3-methylpiperidin-3-yl)acrylamide] |
| 100 to 500 | C=CC(=O)N1CCN(c2ccc3ncnc(Nc4cc(C)c(Oc5ccc6c(c5)nnn6C)cc4OC(F)F)c3n2)CC1(C)C [Compound 305, 1-(4-(4-((2-(difluoromethoxy)-5-methyl-4-((1-methyl-1H-benzo[d][1,2,3]triazol-5-yl)oxy)phenyl)amino)pyrido[3,2-d]pyrimidin-6-yl)-2,2-dimethylpiperazin-1-yl)prop-2-en-1-one] |

From US20250129078A1, “ERBB2 INHIBITORS” (Cogent Biosciences, Inc., priority 2023, published 2025)
